Marks after values point to notes of the source that are not given here.
Tests used:
[1] = system: Leishmania (L) amazonensis promastigote forms (isolate LV79); assay: Promastigote proliferation in RPMI medium, Neubauer chamber count; assay type: cell-based
Procedure: Compounds are solubilized with dimethyl sulfoxide (DMSO) to produce a stock solution from which samples with different concentrations are obtained, by adding the culture medium in sufficient volume as required to attain the first desired concentration with the other concentrations being obtained by serial dilution of this first one, at ratio 2. The cultures are incubated at 22° C. or 34° C. for promastigotes and amastigotes, respectively.
As a positive control for parasite viability evaluation, only culture medium and parasite, without any other addition, were used. As toxicity control for the solvent present in compound composition, parasite forms were incubated with DMSO diluted in culture medium.
To quantify the promastigotes, Neubauer chambers are used and the cultures are quantified every 24 hours throughout the incubation period scheduled for each experiment. The samples are prepared from an initial dilution of 20 μL of the culture into 180 μL of the saline solution formulated (PBS+2% formaldehyde) to obtain a 1/10 dilution. Whenever necessary, serial dilutions may be performed from the first dilution. For all experiments, parasite forms should be incubated with several HB-1 concentrations, its respective controls with DMSO (we should have in mind that the initial HB-1 stock solution was prepared with DMSO and that its toxicity in relation to the parasite forms have to be assessed) and the normal culture, without any component additioned to the medium. Countings are performed as duplicates, by two different people and the final result is expressed as the arithmetic average from the two countings. The same procedure is employed to quantify the amastigote forms.
Leishmania (L) amazonensis promastigote forms (isolade LV79, 1st passage in culture medium, day 7 of culture, stationary phase) are incubated at a proportion of 10^6 promastigotes/mL of RPMI medium, 3.0 mL final volume, in the presence of different concentrations of HB-1 and of the respective controls in DMSO. The effect of HB-1 compound on the proliferation of Leishmania (L) amazonensis promastigotes-RPMI medium is shown in the next Table and in FIG. 34.

[2] = system: promastigote form of Leishmania (L) amazonensis (LV79 isolate); assay: Promastigote viability by the MTT method in RPMI medium; assay type: cell-based
Procedure: Viability and/or cellular proliferative assays of promastigote and amastigote forms are also performed by the MTT (diphenyl tetrazolium 3-[4,5-dimethylthiazol-2il]2,5-bromide) method as described by Moreira, et al. (Moreira, M. E. C., Del Portillo, H. A., Milder, R. V., Balanco, J. M. F. and Barcinski, M. A. Heat shock induction of apoptosis in promastigotes of the unicellular organism Leishmania (Leishmania) amazonensis, J. Cell Physiol 167, 305-313, 1996), modified.
After incubation of parasitic forms with the compounds, as described above, for predetermined periods of time for each experiment (24, 48, 72 hours, etc.), an 1.0 mL aliquot of cellular suspension is collected from each culture tube or vial and transferred to microcentrifuge tubes, where they are centrifuged at 14.000 rpm for 3 minutes, the culture medium is aspirated and discharged. To the sedimented cells are add 200 μL of PBS. After that, the volume in PBS of the cellular suspensions is splitted into two wells (duplicates of 100 μL each) of a 96 well culture plate. To each duplicate, […] of MTT (5 mg/mL stock solution, […]) are added. After 1 h or 1 h 30 min, at a temperature of 22° C. (promastigotes) or 34° C. (amastigotes), 100 μL of 10% SDS are added to each well to interrupt the reaction, to lyse the cells and to dissolve the formazan crystals, resulting in an homogeneous blue solution appropriate to the absorbance measure by a spectrophotometer for culture microplates (3550 BIORAD model, Richmond, Calif.), at 595 nm as test wavelength and 690 nm as the reference wavelength.
The optical density (O.D.) values correspond to MTT enzymatic reduction by the metabolic active cells. Consequently, the O.D. is directly proportional to the number of viable cells of the cellular suspension. The progressive increase of O.D. indicates cellular proliferation. Results are expressed as arithmetic average of the optical density duplicates.
Blanks of reaction are obtained by incubating of the specific medium employed in each assay, in addition to MTT, and different HB-1 concentrations. The brownish-yellow color of HB-1 exerts certain interference on the colorimetric assay at different magnitudes, according to the medium and to HB-1 concentration. In general the O.D. blank ranged among assays from 0.002 to 0.020.
In this assay, viability of the promastigote form Leishmania is assessed by the MTT method, when incubated in RPMI medium, in the presence of HB-1 or of its respective controls in DMSO. It is also possible to verify if the effect of HB-1 could be detected in the stationary phase of the growth curve.
For the incubations, promastigotes of the LV79 isolate, in 1st passage and in Day 7 of culture, are employed, from a 1.0×10^6/mL as initial inoculum. The final reaction volume is of 3.0 mL. The results of the viability determination for the promastigote forms of Leishmania (L) amazonensis treated with HB-1 in RPMI medium are shown in the next Table and in FIG. 35.

COc1cc(C=CC(=O)C=Cc2ccc(O)c(OC)c2)ccc1O [HB-1, 1,5-Bis-(4-hydroxy-3-methoxy-phenyl)-penta-1,4-dien-3-one]
N^o. of promastigotes/mL (×10^6) ([1]; HB-1 3.12 μg/mL, 24 hours): 1.6 ×10^6 promastigotes/mL | N^o. of promastigotes/mL (×10^6) ([1]; HB-1 3.12 μg/mL, 48 hours): 2.1 ×10^6 promastigotes/mL | N^o. of promastigotes/mL (×10^6) ([1]; HB-1 3.12 μg/mL, 72 hours): 2.1 ×10^6 promastigotes/mL | N^o. of promastigotes/mL (×10^6) ([1]; HB-1 3.12 μg/mL, 144 hours): 2.4 ×10^6 promastigotes/mL | N^o. of promastigotes/mL (×10^6) ([1]; HB-1 6.25 μg/mL, 24 hours): 0.8 ×10^6 promastigotes/mL | N^o. of promastigotes/mL (×10^6) ([1]; HB-1 6.25 μg/mL, 48 hours): 1.0 ×10^6 promastigotes/mL | N^o. of promastigotes/mL (×10^6) ([1]; HB-1 6.25 μg/mL, 72 hours): 0.7 ×10^6 promastigotes/mL | N^o. of promastigotes/mL (×10^6) ([1]; HB-1 6.25 μg/mL, 144 hours): 0.3 ×10^6 promastigotes/mL | N^o. of promastigotes/mL (×10^6) ([1]; HB-1 12.5 μg/mL, 24 hours): 0.7 ×10^6 promastigotes/mL | N^o. of promastigotes/mL (×10^6) ([1]; HB-1 12.5 μg/mL, 48 hours): 0 ×10^6 promastigotes/mL | N^o. of promastigotes/mL (×10^6) ([1]; HB-1 12.5 μg/mL, 72 hours): 0 ×10^6 promastigotes/mL | N^o. of promastigotes/mL (×10^6) ([1]; HB-1 12.5 μg/mL, 144 hours): 0 ×10^6 promastigotes/mL | N^o. of promastigotes/mL (×10^6) ([1]; HB-1 25 μg/mL, 24 hours): 0.5 ×10^6 promastigotes/mL | N^o. of promastigotes/mL (×10^6) ([1]; HB-1 25 μg/mL, 48 hours): 0 ×10^6 promastigotes/mL | N^o. of promastigotes/mL (×10^6) ([1]; HB-1 25 μg/mL, 72 hours): 0 ×10^6 promastigotes/mL | N^o. of promastigotes/mL (×10^6) ([1]; HB-1 25 μg/mL, 144 hours): 0 ×10^6 promastigotes/mL | N^o. of promastigotes/mL (×10^6) ([1]; HB-1 50 μg/mL, 24 hours): 0.1 ×10^6 promastigotes/mL | N^o. of promastigotes/mL (×10^6) ([1]; HB-1 50 μg/mL, 48 hours): 0 ×10^6 promastigotes/mL | N^o. of promastigotes/mL (×10^6) ([1]; HB-1 50 μg/mL, 72 hours): 0 ×10^6 promastigotes/mL | N^o. of promastigotes/mL (×10^6) ([1]; HB-1 50 μg/mL, 144 hours): 0 ×10^6 promastigotes/mL | inhibitory effect (=mortality) ([1]; HB-1 100 μg/mL to 12.5 μg/mL, 48 hours): 100% | N^o. of promastigotes/mL (×10^6) ([1]; HB-1 100 μg/mL, 24 hours): 0 ×10^6 promastigotes/mL | N^o. of promastigotes/mL (×10^6) ([1]; HB-1 100 μg/mL, 48 hours): 0 ×10^6 promastigotes/mL | N^o. of promastigotes/mL (×10^6) ([1]; HB-1 100 μg/mL, 72 hours): 0 ×10^6 promastigotes/mL | N^o. of promastigotes/mL (×10^6) ([1]; HB-1 100 μg/mL, 144 hours): 0 ×10^6 promastigotes/mL | Optical Density 595/690 nm (average value from duplicates) ([2]; HB-1 3.12 μg/mL, 24 hours): 0.062 | Optical Density 595/690 nm (average value from duplicates) ([2]; HB-1 3.12 μg/mL, 48 hours): 0.085 | Optical Density 595/690 nm (average value from duplicates) ([2]; HB-1 3.12 μg/mL, 72 hours): 0.104* | Optical Density 595/690 nm (average value from duplicates) ([2]; HB-1 3.12 μg/mL, 144 hours): 0.021 | effect in words ([2]; HB-1 6.25 μg/mL): leishmaniostatic effect | Optical Density 595/690 nm (average value from duplicates) ([2]; HB-1 6.25 μg/mL, 24 hours): 0.039 | Optical Density 595/690 nm (average value from duplicates) ([2]; HB-1 6.25 μg/mL, 48 hours): 0.033 | Optical Density 595/690 nm (average value from duplicates) ([2]; HB-1 6.25 μg/mL, 72 hours): 0.044 | Optical Density 595/690 nm (average value from duplicates) ([2]; HB-1 6.25 μg/mL, 144 hours): 0.031 | Optical Density 595/690 nm (average value from duplicates) ([2]; HB-1 12.5 μg/mL, 24 hours): 0.010 | Optical Density 595/690 nm (average value from duplicates) ([2]; HB-1 12.5 μg/mL, 48 hours): 0.004 | Optical Density 595/690 nm (average value from duplicates) ([2]; HB-1 12.5 μg/mL, 72 hours): 0.003 | Optical Density 595/690 nm (average value from duplicates) ([2]; HB-1 12.5 μg/mL, 144 hours): 0.005 | Optical Density 595/690 nm (average value from duplicates) ([2]; HB-1 25 μg/mL, 24 hours): 0.004 | Optical Density 595/690 nm (average value from duplicates) ([2]; HB-1 25 μg/mL, 48 hours): 0.005 | Optical Density 595/690 nm (average value from duplicates) ([2]; HB-1 25 μg/mL, 72 hours): 0.002 | Optical Density 595/690 nm (average value from duplicates) ([2]; HB-1 25 μg/mL, 144 hours): 0.005 | Optical Density 595/690 nm (average value from duplicates) ([2]; HB-1 50 μg/mL, 24 hours): 0.008 | Optical Density 595/690 nm (average value from duplicates) ([2]; HB-1 50 μg/mL, 48 hours): 0.004 | Optical Density 595/690 nm (average value from duplicates) ([2]; HB-1 50 μg/mL, 72 hours): 0.005 | Optical Density 595/690 nm (average value from duplicates) ([2]; HB-1 50 μg/mL, 144 hours): 0.005 | Optical Density 595/690 nm (average value from duplicates) ([2]; HB-1 100 μg/mL, 24 hours): 0.016 | Optical Density 595/690 nm (average value from duplicates) ([2]; HB-1 100 μg/mL, 48 hours): 0.012 | Optical Density 595/690 nm (average value from duplicates) ([2]; HB-1 100 μg/mL, 72 hours): 0.011 | Optical Density 595/690 nm (average value from duplicates) ([2]; HB-1 100 μg/mL, 144 hours): 0.011 | effect in words ([2]; HB-1 above 12.5 μg/mL): clear leishmanicidal effect | cell viability in words ([2]; HB-1 between 6.25 μg/mL and 100 μg/mL, since first 24 hours): irreversibly compromise cell viability
